# Experimental data published in PubChem BioAssay (NCI).
# Where “and” joins values, the source holds several entries; their conditions need not be identical. Equal values may be shown once.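 Dose response: 5 concentrations. Exposure: 48 h. Format: 96-well plates. Endpoint: linear interpolation; highest concentration if not reached. The concentration for 50% growth inhibition is given as GI50. TGI: concentration producing complete growth inhibition.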
# Legend:
# Experiment in all cases: NCI anticancer screen, dose series, 48 h
# [1] = system: U251 CNS
# [2] = system: HCC-2998 colon
# [3] = system: SNB-19 CNS
# [4] = system: A498 renal
# [5] = system: EKVX NSCLC
# [6] = system: HOP-92 NSCLC
# [7] = system: MALME-3M melanoma
# [8] = system: SN12C renal
# [9] = system: CAKI-1 renal
# [10] = system: SNB-75 CNS
SMILES,TGI [1],TGI [2],TGI [3],TGI [4],TGI [5],TGI [6],TGI [7],TGI [8],GI50 [1],GI50 [9],TGI [9],GI50 [2],GI50 [3],GI50 [10],TGI [10],GI50 [4],GI50 [5],GI50 [6],GI50 [8],GI50 [7]
CN1NC(=Nc2ccccc2)Sc2c1cnn(-c1ccccc1)c2=O,> 100 µM,> 100 µM,> 100 µM,> 100 µM,> 100 µM,> 100 µM,> 100 µM,> 100 µM,–,–,–,–,–,–,–,–,–,–,–,–
O=C(Nc1ccc(Br)cc1)c1ccc(Cl)c(Cl)c1,> 100 µM,> 71.7 µM,> 100 µM,3.75 µM,> 100 µM,5.1 µM,–,> 100 µM,3.27 µM,1.51 µM,4.58 µM,3.99 µM,3.87 µM,3.2 µM,> 31 µM,0.207 µM,1.99 µM,0.341 µM,3.21 µM,–
O=C(Nc1ccc(CO)cc1)c1coc2ccccc2c1=O,> 100 µM,> 100 µM,> 100 µM,–,> 100 µM,> 100 µM,> 100 µM,> 100 µM,> 100 µM,> 100 µM,> 100 µM,> 100 µM,> 100 µM,> 100 µM,> 100 µM,–,> 100 µM,29.4 µM,> 100 µM,> 100 µM
NC(N)=NCCCCCNc1noc(Cc2c[nH]c3cc(Br)ccc23)n1,14.9 µM,23.2 µM,20.4 µM,> 100 µM,–,46.7 µM,35 µM,18.8 µM,2.78 µM,66.7 µM,> 100 µM,6.12 µM,3.62 µM,–,–,> 100 µM,–,2.96 µM,3.87 µM,8.34 µM
Cc1cc2c(cc1Cl)SC(=Nc1ccc(Cl)cc1)N(S(=O)(=O)c1ccccc1)S2(=O)=O,19.5 µM,–,> 100 µM,–,29.3 µM,26.1 µM,–,28.7 µM,5.96 µM,5.37 µM,23.4 µM,–,20.6 µM,–,–,–,15.1 µM,5.39 µM,13.8 µM,–
COc1cc2cccc(N=Cc3cccc(OC)c3OC(C)C)c2cc1OC,49.9 µM,> 100 µM,–,> 100 µM,> 100 µM,–,59.8 µM,> 100 µM,–,–,42.9 µM,–,–,–,49 µM,–,–,–,–,–
Cc1c(C2=C(Br)C(=O)N(C)C2=O)c(=O)n(C)c(=O)n1C,> 100 µM,53.3 µM,> 100 µM,82.9 µM,41.8 µM,34.4 µM,–,> 100 µM,–,–,34.8 µM,–,–,–,> 100 µM,–,–,–,–,–
O=C(Nc1ccc(-c2ccccc2)cc1)C1CCN(S(=O)(=O)c2ccccc2Cl)CC1,67.3 µM,> 100 µM,> 100 µM,–,> 100 µM,91.2 µM,–,90.2 µM,18.8 µM,53 µM,> 100 µM,59.2 µM,> 100 µM,36.5 µM,> 100 µM,–,73.5 µM,32.2 µM,26.9 µM,–
C=C1C(=O)O[C@H]2/C=C(/C)C3=CC(=O)[C@@](C)(C[C@@H](OC(=O)/C(C)=C\C)C12)O3 (stereo partly drawn),9.48 µM,3.28 µM,29.7 µM,> 41.4 µM,6.23 µM,2.07 µM,–,3.37 µM,–,–,0.432 µM,–,–,–,23.9 µM,–,–,–,–,–
Cn1cc(C2=C(c3cn(CCCCCN)c4ccccc34)C(=O)NC2=O)c2ccccc21,> 25 µM,> 25 µM,> 25 µM,> 25 µM,–,–,> 25 µM,> 25 µM,10.8 µM,8.25 µM,> 25 µM,> 25 µM,> 25 µM,1.08 µM,> 25 µM,11.3 µM,–,–,9.33 µM,18.4 µM
Nc1nc(CCl)nc(Nc2ccccc2)n1,15.6 µM,31.7 µM,> 100 µM,–,–,33.6 µM,33.7 µM,–,–,–,24.8 µM,–,–,–,50.3 µM,–,–,–,–,–
COC(=O)/C(C#N)=C1\CCC(O)N1 (stereo not drawn),> 100 µM,> 100 µM,> 100 µM,–,> 100 µM,–,> 100 µM,> 100 µM,–,–,> 100 µM,–,–,–,> 100 µM,–,–,–,–,–
CC(C)N=c1cc2n(-c3ccc(Cl)cc3)c3ccccc3nc-2cc1Nc1ccc(Cl)cc1,> 100 µM,–,> 50 µM,–,> 100 µM,2.83 µM,–,> 100 µM,1.07 µM and 3.11 µM,1.73 µM,> 20.9 µM,–,2.21 µM,1.23 µM,15.9 µM,–,1.4 µM,0.629 µM,0.92 µM and 2.74 µM,–
CC(=O)c1sc(-c2nc(C)c(C(=O)/C=C\c3ccc(/C=C\C(=O)c4sc(-c5nc(C)c(C(C)=O)s5)nc4C)cc3)s2)nc1C,> 100 µM,> 100 µM,> 100 µM,–,> 100 µM,–,> 100 µM,> 100 µM,–,–,> 100 µM,–,–,–,–,–,–,–,–,–
Cc1cc(NS(=O)(=O)c2ccc(Nc3c4ccccc4nc4c(C(=O)NCCN(C)C)cccc34)cc2)no1,> 100 µM,27 µM,13 µM,–,30.1 µM,–,–,> 100 µM,–,–,–,–,–,–,21 µM,–,–,–,–,–
CCc1ccccc1NC(=O)c1sc2nc3c(cc2c1N)C(=O)CCC3,51.7 µM,> 100 µM,> 100 µM,5.52 µM,–,–,> 100 µM,> 100 µM,0.608 µM,0.504 µM,> 100 µM,1.67 µM,0.801 µM,0.346 µM,55.1 µM,0.22 µM,–,–,0.729 µM,26.2 µM
CC(=O)/C=C/c1ccc(C#Cc2ccccc2)s1,30.5 µM,27.8 µM,25.9 µM,–,31.6 µM,–,40.7 µM,31.4 µM,16.8 µM,19.3 µM,36.2 µM,14.7 µM,12.7 µM,–,–,–,17.7 µM,–,17.1 µM,20.5 µM
N#C/C(=C/N1CCN(C(=O)c2ccco2)C1=S)C(=O)c1ccccc1,> 100 µM,–,> 100 µM,–,48 µM,> 100 µM,> 100 µM,25 µM,17 µM,12.5 µM,44.4 µM,–,39.7 µM,68.2 µM,> 100 µM,–,17.8 µM,26.9 µM,8.64 µM,30.7 µM
